Data reported in PubChem BioAssay (NCI).
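The compound was tested at five concentrations on cells cultured in 96-well plates, with a 48-hour exposure period. At the GI50, growth is halved. TGI: concentration producing complete growth inhibition.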

Experiments:
Test in all cases: DTP human tumour cell line panel, 48 h; in the data active = GI50 below about 0.43 µM; inactive = the rest
SK-MEL-28 melanoma = tested on: SK-MEL-28 melanoma
U251 CNS = tested on: U251 CNS
SK-OV-3 ovarian = tested on: SK-OV-3 ovarian
MCF7 breast = tested on: MCF7 breast
NCI-H522 lung = tested on: NCI-H522 lung
NCI-H23 lung = tested on: NCI-H23 lung
BT-549 breast = tested on: BT-549 breast
HCT-15 colon = tested on: HCT-15 colon
OVCAR-8 ovarian = tested on: OVCAR-8 ovarian
SK-MEL-5 melanoma = tested on: SK-MEL-5 melanoma
UACC-257 melanoma = tested on: UACC-257 melanoma
PC-3 prostate = tested on: PC-3 prostate
A498 renal = tested on: A498 renal
HOP-92 NSCLC = tested on: HOP-92 NSCLC
T-47D breast = tested on: T-47D breast
MDA-MB-435 = tested on: MDA-MB-435
UACC-62 melanoma = tested on: UACC-62 melanoma
HOP-62 NSCLC = tested on: HOP-62 NSCLC
NCI-H460 lung = tested on: NCI-H460 lung
SK-MEL-2 melanoma = tested on: SK-MEL-2 melanoma
ACHN renal = tested on: ACHN renal
MALME-3M melanoma = tested on: MALME-3M melanoma
OVCAR-5 ovarian = tested on: OVCAR-5 ovarian
SF-539 CNS = tested on: SF-539 CNS
HT29 colon = tested on: HT29 colon
SW-620 colon = tested on: SW-620 colon
SF-295 CNS = tested on: SF-295 CNS
OVCAR-3 ovarian = tested on: OVCAR-3 ovarian
DU-145 prostate = tested on: DU-145 prostate
M14 melanoma = tested on: M14 melanoma
NCI-H226 lung = tested on: NCI-H226 lung
TK-10 renal = tested on: TK-10 renal
SF-268 CNS = tested on: SF-268 CNS
CAKI-1 renal = tested on: CAKI-1 renal
UO-31 renal = tested on: UO-31 renal
COLO 205 colon = tested on: COLO 205 colon
KM12 colon = tested on: KM12 colon
RXF 393 renal = tested on: RXF 393 renal
LOX IMVI melanoma = tested on: LOX IMVI melanoma
CCRF-CEM leukemia = tested on: CCRF-CEM leukemia
HS 578T breast = tested on: HS 578T breast
K-562 leukemia = tested on: K-562 leukemia
SNB-19 CNS = tested on: SNB-19 CNS
IGROV1 ovarian = tested on: IGROV1 ovarian
MDA-MB-231 breast = tested on: MDA-MB-231 breast
HCT-116 colon = tested on: HCT-116 colon
OVCAR-4 ovarian = tested on: OVCAR-4 ovarian
A549 NSCLC = tested on: A549 NSCLC
SR leukemia = tested on: SR leukemia
RPMI-8226 leukemia = tested on: RPMI-8226 leukemia
786-0 renal = tested on: 786-0 renal
EKVX NSCLC = tested on: EKVX NSCLC
NCI/ADR-RES ovarian = tested on: NCI/ADR-RES ovarian

C=C1C(O)C2C(=C(CC(C)C)C13CC3)C(=O)C(C)(C)C2O (stereo unspecified)
inactive: GI50 (SK-MEL-28 melanoma) > 100 µM | GI50 (U251 CNS) > 100 µM | GI50 (SK-OV-3 ovarian) > 100 µM | GI50 (MCF7 breast) > 100 µM | GI50 (NCI-H522 lung) > 100 µM | GI50 (NCI-H23 lung) > 100 µM | GI50 (BT-549 breast) > 100 µM | GI50 (HCT-15 colon) > 100 µM | GI50 (OVCAR-8 ovarian) > 100 µM | GI50 (SK-MEL-5 melanoma) > 100 µM | GI50 (UACC-257 melanoma) > 100 µM | GI50 (PC-3 prostate) > 100 µM | GI50 (A498 renal) > 100 µM | GI50 (HOP-92 NSCLC) > 100 µM | GI50 (T-47D breast) > 100 µM | GI50 (MDA-MB-435) > 100 µM | GI50 (UACC-62 melanoma) > 100 µM | GI50 (HOP-62 NSCLC) > 100 µM | GI50 (NCI-H460 lung) > 100 µM | GI50 (SK-MEL-2 melanoma) > 100 µM | GI50 (ACHN renal) > 100 µM | GI50 (MALME-3M melanoma) 89.9 µM | GI50 (OVCAR-5 ovarian) > 100 µM | GI50 (SF-539 CNS) > 100 µM | GI50 (HT29 colon) > 100 µM | GI50 (SW-620 colon) > 100 µM | GI50 (SF-295 CNS) > 100 µM | GI50 (OVCAR-3 ovarian) 75.8 µM | GI50 (DU-145 prostate) > 100 µM | GI50 (M14 melanoma) > 100 µM | GI50 (NCI-H226 lung) > 100 µM | GI50 (TK-10 renal) > 100 µM | GI50 (SF-268 CNS) > 100 µM | GI50 (CAKI-1 renal) > 100 µM | GI50 (UO-31 renal) > 100 µM | GI50 (COLO 205 colon) > 100 µM | GI50 (KM12 colon) > 100 µM | GI50 (RXF 393 renal) > 100 µM | GI50 (LOX IMVI melanoma) > 100 µM | GI50 (CCRF-CEM leukemia) > 100 µM | GI50 (HS 578T breast) > 100 µM | GI50 (K-562 leukemia) 0.859 µM | GI50 (SNB-19 CNS) > 100 µM | GI50 (IGROV1 ovarian) > 100 µM | GI50 (MDA-MB-231 breast) > 100 µM | GI50 (HCT-116 colon) > 100 µM | GI50 (OVCAR-4 ovarian) > 100 µM | GI50 (A549 NSCLC) > 100 µM | GI50 (SR leukemia) > 100 µM | GI50 (RPMI-8226 leukemia) 42.1 µM | GI50 (786-0 renal) > 100 µM | GI50 (EKVX NSCLC) > 100 µM | GI50 (NCI/ADR-RES ovarian) > 100 µM
> 100 µM: TGI (SK-MEL-28 melanoma) | TGI (U251 CNS) | TGI (SK-OV-3 ovarian) | TGI (MCF7 breast) | TGI (NCI-H522 lung) | TGI (NCI-H23 lung) | TGI (BT-549 breast) | TGI (HCT-15 colon) | TGI (OVCAR-8 ovarian) | TGI (SK-MEL-5 melanoma) | TGI (UACC-257 melanoma) | TGI (PC-3 prostate) | TGI (A498 renal) | TGI (HOP-92 NSCLC) | TGI (T-47D breast) | TGI (MDA-MB-435) | TGI (UACC-62 melanoma) | TGI (HOP-62 NSCLC) | TGI (NCI-H460 lung) | TGI (SK-MEL-2 melanoma) | TGI (ACHN renal) | TGI (MALME-3M melanoma) | TGI (OVCAR-5 ovarian) | TGI (SF-539 CNS) | TGI (HT29 colon) | TGI (SW-620 colon) | TGI (SF-295 CNS) | TGI (OVCAR-3 ovarian) | TGI (DU-145 prostate) | TGI (M14 melanoma) | TGI (NCI-H226 lung) | TGI (TK-10 renal) | TGI (SF-268 CNS) | TGI (CAKI-1 renal) | TGI (UO-31 renal) | TGI (COLO 205 colon) | TGI (KM12 colon) | TGI (RXF 393 renal) | TGI (LOX IMVI melanoma) | TGI (CCRF-CEM leukemia) | TGI (HS 578T breast) | TGI (K-562 leukemia) | TGI (SNB-19 CNS) | TGI (IGROV1 ovarian) | TGI (MDA-MB-231 breast) | TGI (HCT-116 colon) | TGI (OVCAR-4 ovarian) | TGI (A549 NSCLC) | TGI (SR leukemia) | TGI (RPMI-8226 leukemia) | TGI (786-0 renal) | TGI (EKVX NSCLC) | TGI (NCI/ADR-RES ovarian)
